Measurements reported in patent US20190191690A1, “AGENTS AND DEVICE FOR COMBATING PESTS, IN […] AND MICE, AND METHOD FOR USING THE AGENTS” (priority 2016, published 2019).

Key:
mice [1] = experiment: experiments on development of resistance in mice; assay type: in vivo
mice [2] = experiment: lethal dose in mice; assay type: in vivo
Method: The grayanotoxins have been described in exhaustive terms in literature and the chemical formulae are known. It has become evident that the effects of the substance occur even for low concentrations of the active agent. The lethal dose for grayanotoxin 1 in mice is approx. 5.1 mg per kg live weight and for grayanotoxin 3 approx. 4.9 mg per kg live weight. The substance as an active agent carrier may contain natural and/or synthetic carrier substances or substance mixtures. Natural carrier substances may be preferably selected from the group of natural oils, waxes and honey and their mixtures, emulsions, solutions or dispersions.

Compound	development of resistance (mice [1])	lethal dose (mice [2])
grayanotoxin	rare for mice to develop a resistance	
grayanotoxin 3		approx. 4.9 mg per kg live weight
CC(=O)O[C@@H]1[C@H]2CC[C@H]3[C@@](C)(O)[C@@H]4C[C@H](O)C(C)(C)[C@@]4(O)[C@H](O)C[C@@]13C[C@@]2(C)O [grayanotoxin 1]		approx. 5.1 mg per kg live weight
